Several values for one entry are separate records, joined by “and”; a condition that tells them apart may be missing. Equal entries are not always repeated. Inconclusive results and toxic doses are left out.

For this assay, the system named is L1210 leukemia ip in BDF1 mice, survival T/C. Nature of the assay: NCI In Vivo Anticancer Drug Screen. Data for tumor model L1210 Leukemia (intraperitoneal) in B6D2F1 (BDF1) mice. To be noted: endpoint: mean survival time, higher = longer survival. The method, boiled down:
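Each compound was tested against a transplantable tumor grown in mice. The endpoint was survival, with treated animals benchmarked against vehicle controls as a simple ratio.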

[1] abbreviates: dose: 100.0 mg/kg/injection, schedule: Q01DX001 (ip), vehicle: carboxymethylcellulose (CMC).
Where [2] appears, read: dose: 200.0 mg/kg/injection, schedule: Q01DX001 (ip), vehicle: carboxymethylcellulose (CMC).
Where [3] appears, read: dose: 400.0 mg/kg/injection, schedule: Q01DX001 (ip), vehicle: carboxymethylcellulose (CMC).
The mark [4] stands for this setting: dose: 100.0 mg/kg/injection, schedule: Q01DX009 (ip), vehicle: Klucel (hydroxypropylcellulose) (HPC).
Setting [5] is: dose: 100.0 mg/kg/injection, schedule: Q04DX003 (ip), vehicle: Klucel (hydroxypropylcellulose) (HPC).
Where [6] appears, read: dose: 200.0 mg/kg/injection, schedule: Q01DX009 (ip), vehicle: Klucel (hydroxypropylcellulose) (HPC).
Where [7] appears, read: dose: 200.0 mg/kg/injection, schedule: Q04DX003 (ip), vehicle: Klucel (hydroxypropylcellulose) (HPC).
Setting [8] is: dose: 400.0 mg/kg/injection, schedule: Q01DX009 (ip), vehicle: Klucel (hydroxypropylcellulose) (HPC).
Setting [9] is: dose: 400.0 mg/kg/injection, schedule: Q04DX003 (ip), vehicle: Klucel (hydroxypropylcellulose) (HPC).
[10] abbreviates: dose: 100.0 mg/kg/injection, schedule: Q04DX002 (ip), vehicle: Klucel (hydroxypropylcellulose) (HPC).
Setting [11] is: dose: 200.0 mg/kg/injection, schedule: Q04DX002 (ip), vehicle: Klucel (hydroxypropylcellulose) (HPC).
The mark [12] stands for this setting: dose: 400.0 mg/kg/injection, schedule: Q04DX002 (ip), vehicle: Klucel (hydroxypropylcellulose) (HPC).
Where [13] appears, read: dose: 100.0 mg/kg/injection, schedule: Q01DX001 (ip), vehicle: saline.
Where [14] appears, read: dose: 200.0 mg/kg/injection, schedule: Q01DX001 (ip), vehicle: saline.
Where [15] appears, read: dose: 400.0 mg/kg/injection, schedule: Q01DX001 (ip), vehicle: saline.
Where [16] appears, read: dose: 100.0 mg/kg/injection, schedule: Q04DX003 (ip), vehicle: saline with Tween-80.
[17] abbreviates: dose: 200.0 mg/kg/injection, schedule: Q04DX003 (ip), vehicle: saline with Tween-80.
The mark [18] stands for this setting: dose: 400.0 mg/kg/injection, schedule: Q04DX003 (ip), vehicle: saline with Tween-80.
Where [19] appears, read: dose: 100.0 mg/kg/injection, schedule: Q01DX009 (ip), vehicle: saline with Tween-80.
[20] abbreviates: dose: 200.0 mg/kg/injection, schedule: Q01DX009 (ip), vehicle: saline with Tween-80.

Turning to `O=[As](O)(CC(O)c1ccccc1)c1ccc(Cl)cc1` (centres undefined), the T/C was 100 % of control (dose: 6.25 mg/kg/injection, schedule: Q01DX001 (ip), vehicle: saline with Tween-80); 109 % of control (dose: 12.5 mg/kg/injection, schedule: Q01DX001 (ip), vehicle: saline with Tween-80); 105 % of control and 116 % of control (dose: 25.0 mg/kg/injection, schedule: Q01DX001 (ip), vehicle: saline with Tween-80).

Regarding `Cc1cc(N(CCCl)CCCl)ccc1C=Nc1ccc(-c2csc(COc3ccccc3)n2)c(Cl)c1`, the T/C is, setting by setting: under setting [1], 95 % of control; under setting [2], 108 % of control; under setting [3], 103 % of control.

With `CCN(CC)CC(=O)NCC(CCN1CCCC1)(CC(C)C)c1cccc2ccccc12` (centres undefined), the T/C (dose: 100.0 mg/kg/injection, schedule: Q04DX002 (ip), vehicle: saline) is 97 % of control and the T/C (dose: 200.0 mg/kg/injection, schedule: Q04DX002 (ip), vehicle: saline) is 94 % of control.

In the case of `CCOC(=O)c1cnc(SC)nc1Nc1cccc([N+](=O)[O-])c1`, the T/C under setting [4] was 110 % of control; the T/C under setting [5] was 97 % of control; the T/C under setting [6] is 97 % of control; the T/C under setting [7] is 98 % of control; the T/C under setting [8] was 95 % of control; the T/C under setting [9] was 95 % of control.

In the case of `CCCCNC(=O)c1c(Cl)c(Cl)c(Cl)c(Cl)c1C(=O)O`, the T/C is 97 % of control (dose: 100.0 mg/kg/injection, schedule: Q04DX002 (ip), vehicle: saline with Tween-80) and 90 % of control (dose: 200.0 mg/kg/injection, schedule: Q04DX002 (ip), vehicle: saline with Tween-80).

With `Cc1ccc([N+](=O)[O-])cc1NC(=O)Oc1cc(=O)oc2ccccc12`, the T/C is 104 % of control under setting [10], 90 % of control under setting [11] and 93 % of control under setting [12].

Regarding `CC(=O)CCCC(C)C1CCC2[C@H]3CC=C4C[C@H](O)CC[C@@]4(C)C3CC[C@@]12C` (some centres undefined), the T/C runs as follows: (dose: 50.0 mg/kg/injection, schedule: Q01DX009 (ip), vehicle: Klucel (hydroxypropylcellulose) (HPC)) 96 % of control; under setting [4], 100 % of control; under setting [6], 102 % of control.

As for `CN(C)C(=O)Sc1ccc(C(=O)O)cc1`, the T/C (dose: 100.0 mg/kg/injection, schedule: Q04DX003 (ip), vehicle: gum acacia) was 109 % of control; the T/C (dose: 200.0 mg/kg/injection, schedule: Q04DX003 (ip), vehicle: gum acacia) is 98 % of control; the T/C (dose: 400.0 mg/kg/injection, schedule: Q04DX003 (ip), vehicle: gum acacia) is 113 % of control.

On to `O=C1NC(=S)NC(=O)C1=Cc1ccncc1`, for which the T/C under setting [13] was 105 % of control, the T/C under setting [14] was 102 % of control and the T/C under setting [15] is 98 % of control.

Turning to `CCOC(=O)CCCCCCCCCCOc1ccc(C(C)=O)cc1`, the T/C reads like this: under setting [5], 94 % of control; under setting [7], 100 % of control; under setting [9], 97 % of control.

As for `Cc1cc(C)c(-c2c(C)cc(C)cc2CBr)c(CBr)c1`, the T/C runs as follows: under setting [4], 108 % of control; under setting [6], 99 % of control; under setting [8], 99 % of control.

Take `O=C1NCCO1`: the T/C is, setting by setting: (dose: 50.0 mg/kg/injection, schedule: Q04DX003 (ip), vehicle: saline) 97 % of control; under setting [4], 103 % of control; under setting [5], 105 % of control; (dose: 100.0 mg/kg/injection, schedule: Q04DX003 (ip), vehicle: saline) 102 % of control and 106 % of control; under setting [6], 105 % of control; under setting [7], 103 % of control. Besides, the T/C (dose: 200.0 mg/kg/injection, schedule: Q04DX003 (ip), vehicle: saline) is 95 % of control and 92 % of control and 103 % of control; the T/C under setting [8] was 103 % of control; the T/C under setting [9] was 103 % of control; the T/C (dose: 400.0 mg/kg/injection, schedule: Q04DX003 (ip), vehicle: saline) is 103 % of control and 105 % of control.

As for `Nc1ncnc(N)c1NC(=O)c1cccc(Br)c1`, the T/C (dose: 6.25 mg/kg/injection, schedule: Q04DX003 (ip), vehicle: saline with Tween-80) was 96 % of control; the T/C (dose: 12.5 mg/kg/injection, schedule: Q04DX003 (ip), vehicle: saline with Tween-80) was 96 % of control; the T/C (dose: 25.0 mg/kg/injection, schedule: Q04DX003 (ip), vehicle: saline with Tween-80) was 100 % of control and 103 % of control.

Regarding `CCOC(=O)Nc1cc2c(c(N)n1)N=C(CN(C)c1ccc(Cl)cc1)CN2`, the T/C is, setting by setting: (dose: 100.0 mg/kg/injection, schedule: Q01DX001 (ip), vehicle: Klucel (hydroxypropylcellulose) (HPC)) 150 % of control and 165 % of control; (dose: 150.0 mg/kg/injection, schedule: Q01DX001 (ip), vehicle: Klucel (hydroxypropylcellulose) (HPC)) 93 % of control.

In the case of `C#C/C=C/CC1OC(C(Br)CC)CC(Br)C2CC1O2` (centres undefined), the T/C was 92 % of control (dose: 75.0 mg/kg/injection, schedule: Q01DX001 (ip), vehicle: carboxymethylcellulose (CMC)); 96 % of control (dose: 150.0 mg/kg/injection, schedule: Q01DX001 (ip), vehicle: carboxymethylcellulose (CMC)); 96 % of control (dose: 300.0 mg/kg/injection, schedule: Q01DX001 (ip), vehicle: carboxymethylcellulose (CMC)).

For the molecule `Clc1ccc(C(c2ccc(Cl)cc2)c2ccccn2)cc1`, the T/C is 92 % of control under setting [4]; 98 % of control under setting [5]; 97 % of control under setting [6]; 95 % of control under setting [7]; 97 % of control under setting [9].

On to `COc1cc(OC)c(NC(=O)Nc2cc([N+](=O)[O-])ccc2C)cc1Cl`, for which the T/C is 97 % of control under setting [10], 108 % of control under setting [11] and 114 % of control under setting [12].

For `CC(=O)C1=C(c2ccccc2)NC(=O)NC1c1ccco1` (centres undefined), the T/C by setting is: under setting [16], 94 % of control; under setting [17], 90 % of control; under setting [18], 92 % of control.

As for `O=c1[nH]c2c(Cl)cc(Cl)cc2c2ccccc12`, the T/C runs as follows: under setting [1], 87 % of control; under setting [2], 92 % of control; under setting [3], 100 % of control.

Regarding `S=P(Oc1cc(Cl)c(Cl)cc1Cl)(N1CCN(c2ccccc2)CC1)N1CCN(c2ccccc2)CC1`, the T/C by setting is: under setting [13], 90 % of control; under setting [14], 90 % of control; under setting [15], 88 % of control.

With `CCCCCCCCCCCCCCCCCC[Se][Se]CCCCCCCCCCCCCCCCCC`, the T/C runs as follows: (dose: 6.25 mg/kg/injection, schedule: Q01DX009 (ip), vehicle: saline with Tween-80) 94 % of control; (dose: 12.5 mg/kg/injection, schedule: Q01DX009 (ip), vehicle: saline with Tween-80) 93 % of control; (dose: 25.0 mg/kg/injection, schedule: Q01DX009 (ip), vehicle: saline with Tween-80) 98 % of control and 89 % of control; under setting [16], 87 % of control; under setting [18], 86 % of control.

In the case of `O=C(CCCCl)NCc1ccccc1[N+](=O)[O-]`, the T/C under setting [4] was 96 % of control; the T/C under setting [5] was 101 % of control; the T/C under setting [6] is 90 % of control; the T/C under setting [7] is 93 % of control; the T/C under setting [8] is 91 % of control; the T/C under setting [9] is 97 % of control.

Regarding `O=c1cc(-c2c(O)cc(O)cc2O)oc2cc(O)cc(O)c12`, the T/C under setting [1] was 94 % of control, the T/C under setting [2] is 94 % of control and the T/C under setting [3] is 92 % of control.

Turning to `CC(=O)Oc1ccc(Cl)cc1`, the T/C is, setting by setting: under setting [19], 97 % of control; under setting [16], 108 % of control; under setting [20], 103 % of control; under setting [17], 97 % of control; under setting [18], 105 % of control.

As to `CN1C(CCl)Nc2cc(Cl)c(S(N)(=O)=O)cc2S1(=O)=O` (centres undefined), the T/C is 95 % of control under setting [13], 90 % of control under setting [14] and 96 % of control under setting [15].

Consider `CC(=O)COc1ccc(Cl)cc1Cl`, for which the T/C was 98 % of control under setting [19]; 97 % of control under setting [20]; 92 % of control (dose: 400.0 mg/kg/injection, schedule: Q01DX009 (ip), vehicle: saline with Tween-80).

Source of the values: PubChem BioAssay AID248 (DTP/NCI, 2004).
